Results: patent US9884825B2, “Curcumin analogs and methods of making and using thereof” (Georgia State University Research Foundation, Inc., priority 2012, dated 2018)

Tests used:
[1] = test system: human cervical cancer cells (HeLa); assay: MTT cytotoxicity assay, HeLa cells; assay type: cell-based; conditions: Homo sapiens, HeLa; Table 3, SM compounds; read-out: IC50 (μM) against Hela cell
Description: Two cell human cancer cell lines were used in this study: human cervical cancer cells (HeLa) and human embryonic kidney 293 cells (Hek). The cell lines were obtained from ATCC (Rockville, Md., USA). Cell lines were cultured at 37° C. and 5% CO2 in DMEM medium with 10% fetal bovine serum (FBS) and 1% penicillin/streptomycin (all obtained from GibcoBRL, Grand Island, N.Y.). Cells were passaged three times weekly by trypsinisation with 0.25% trypsin/0.02% EDTA solution (Sigma) into 75 cm^2 tissue culture flasks (Nunc, Denamark).
Both human cervical cancer cells (HeLa) and human embryonic kidney 293 cells (Hek) cell lines were seeded into 96-well plate (2.5×10^4 in 100 μL per well). Testing compounds were dissolved or suspended in DMSO to make 10 mM stock solutions. Addition of compounds was performed after adherent cells reached 40-50% confluence. After incubation for 48 h at 37° C. in humidified atmosphere with 5% CO2, 10 μL of MTT (5 mg/mL in PBS) was added to each well and incubated for another 4 h. The culture medium was then aspirated and 100 μL of DMSO was added to each well. Optical densities at 490 nm were measured by microplate reader (PERKINELMER VICTOR 3V model 1420). All tests were performed in triplicates. Doxorubicin was used as a positive control and the same amount DMSO without compound was used as negative control. IC50 values were obtained from the curve fitting by using Sigma plot10.

Molt4 cell = assay: Cytotoxicity against MOLT4 cell line; assay type: cell-based; conditions: Homo sapiens, MOLT-4; Table 3, SM compounds

SMILES	IC50 [1] [µM]	IC50 (Molt4 cell) [µM]
COc1cc(/C=C2\CC/C(=C\c3ccc(OCCn4ccnc4)c(OC)c3)C2=O)ccc1OCCn1ccnc1 [SM223]	> 2.5	> 2.5
COc1cc(/C=C2\CC/C(=C\c3ccc(OCCN4CCCCC4)c(OC)c3)C2=O)ccc1OCCN1CCCCC1 [SM226]	0.02	0.4
COc1cc(/C=C2\CC/C(=C\c3ccc(OCCN(C)C)c(OC)c3)C2=O)ccc1OCCN(C)C [SM229]	0.03	0.5
COc1cc(/C=C2\CC/C(=C\c3ccc(OCCn4ccnc4C)c(OC)c3)C2=O)ccc1OCCn1ccnc1C [SM232]	0.1	0.9
